In the experiment the target is T1, MrgprB2 (Mus musculus, UniProt Q3KNA1).
T1 construct: endogenous receptor in mouse peritoneal mast cells
T1 sequence (Q3KNA1 1-338): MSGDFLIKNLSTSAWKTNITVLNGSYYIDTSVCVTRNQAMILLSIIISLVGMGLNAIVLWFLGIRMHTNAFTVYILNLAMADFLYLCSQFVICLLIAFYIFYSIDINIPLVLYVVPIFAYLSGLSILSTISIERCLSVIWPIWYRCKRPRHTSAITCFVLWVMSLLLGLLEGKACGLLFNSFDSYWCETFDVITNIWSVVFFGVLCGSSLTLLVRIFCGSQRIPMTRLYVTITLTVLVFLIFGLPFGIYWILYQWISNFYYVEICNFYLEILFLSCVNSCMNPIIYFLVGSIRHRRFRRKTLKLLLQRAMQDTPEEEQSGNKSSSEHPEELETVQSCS
The experiment in a line: agonist: β-hexosaminidase release in WT peritoneal mast cells at […], absent in MrgprB2-/- cells. The format is cell-based.

For the compound `C=CC[N+]1([C@H]2C[C@H]3[C@@H]4CC[C@H]5C[C@H](O)[C@@H](N6CCOCC6)C[C@]5(C)[C@H]4CC[C@]3(C)[C@H]2OC(C)=O)CCCC1` [rocuronium], the “agonist: β-hexosaminidase release in WT peritoneal mast cells at 20 μg/ml, absen” value was “mediated via MrgprB2 by demonstrating that PMCs cultured from MrgprB2^−/− mice do not respond to these agonists”.

The values are drawn from paper PMC9582160, “Inhibition of MRGPRX2 but not FcεRI or MrgprB2-mediated mast cell degranulation by a small molecule inverse receptor agonist” (Frontiers in Immunology, 2022).
